Measured values taken from patent publication US10836708B2, “Process for the synthesis of (s) 3-amino-4-(difluoromethylenyl)cyclopent-1-ene-1-carboxylic acid” (NORTHWESTERN UNIVERSITY, priority 2018, dated 2020).

Columns and labels:
[1] = tested on: various microsomal cytochrome P450 enzymes; details: cited from earlier work
[2] = target: hERG potassium ion channel (Homo sapiens, UniProt Q12809); details: cited from earlier work
[3] = tested on: alanine aminotransferase; details: off-target aminotransferase enzyme; cited from earlier work
[4] = tested on: γ-aminobutyric acid aminotransferase (GABA-AT); details: statement in the background section; cited from earlier work
[5] = tested on: release of dopamine in the corpus striatum; details: rats; after exposure to cocaine or nicotine; compared with previous inhibitors of GABA-AT; cited from earlier work
[6] = tested on: aspartate aminotransferase; details: off-target aminotransferase enzyme; cited from earlier work
[7] = tested on: multiple GABA receptors; details: cited from earlier work
[8] = with prolonged use; cited from earlier work

hERG potassium ion channel, sequence (Q12809 whole entry): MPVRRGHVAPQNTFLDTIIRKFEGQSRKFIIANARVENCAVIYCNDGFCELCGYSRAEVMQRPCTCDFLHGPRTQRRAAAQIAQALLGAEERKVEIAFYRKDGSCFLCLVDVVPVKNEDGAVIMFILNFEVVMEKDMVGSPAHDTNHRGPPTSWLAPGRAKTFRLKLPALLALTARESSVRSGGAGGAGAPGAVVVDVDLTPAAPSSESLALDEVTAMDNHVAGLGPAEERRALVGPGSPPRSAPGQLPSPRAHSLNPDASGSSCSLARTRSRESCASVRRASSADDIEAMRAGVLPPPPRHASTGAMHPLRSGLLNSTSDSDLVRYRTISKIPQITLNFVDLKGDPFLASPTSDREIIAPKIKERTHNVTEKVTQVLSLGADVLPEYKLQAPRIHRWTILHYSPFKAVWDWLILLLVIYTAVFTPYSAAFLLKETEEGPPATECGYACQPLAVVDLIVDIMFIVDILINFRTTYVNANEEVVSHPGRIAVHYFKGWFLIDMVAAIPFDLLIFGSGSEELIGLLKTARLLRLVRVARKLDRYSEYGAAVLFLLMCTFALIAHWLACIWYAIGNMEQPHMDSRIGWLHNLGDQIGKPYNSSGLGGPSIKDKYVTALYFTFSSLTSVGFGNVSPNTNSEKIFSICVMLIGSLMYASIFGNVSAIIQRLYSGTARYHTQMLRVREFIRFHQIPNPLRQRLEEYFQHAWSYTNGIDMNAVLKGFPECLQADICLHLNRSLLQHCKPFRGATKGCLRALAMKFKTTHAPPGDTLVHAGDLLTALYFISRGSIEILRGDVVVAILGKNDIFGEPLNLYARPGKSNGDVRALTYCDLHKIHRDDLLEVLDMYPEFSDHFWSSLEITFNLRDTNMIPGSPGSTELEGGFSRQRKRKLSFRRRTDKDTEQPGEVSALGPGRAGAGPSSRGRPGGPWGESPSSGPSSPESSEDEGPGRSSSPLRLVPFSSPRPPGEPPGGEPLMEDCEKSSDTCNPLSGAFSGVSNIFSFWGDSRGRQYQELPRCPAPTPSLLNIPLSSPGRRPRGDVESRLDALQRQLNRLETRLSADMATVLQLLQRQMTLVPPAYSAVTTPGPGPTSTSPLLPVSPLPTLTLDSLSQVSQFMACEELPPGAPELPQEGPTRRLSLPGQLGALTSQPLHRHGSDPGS

| melting point [°C] | SMILES | inhibition of various microsomal cytochrome P450 enzymes [1] | inhibition of the hERG potassium ion channel [2] | inhibition of alanine aminotransferase [3] | inhibitor of GABA-AT [4] | suppressing the release of dopamine in the corpus striatum [5] | inhibition of aspartate aminotransferase [6] | inhibition of multiple GABA receptors [7] | retinal damage, share of patients [8] |
| --- | --- | --- | --- | --- | --- | --- | --- | --- | --- |
| 139 to 141 | O=C1N[C@@H]2C(=C(F)F)C[C@H]1[C@H]2Br |  |  |  |  |  |  |  |  |
|  | N[C@H]1C=C(C(=O)O)CC1=C(F)F [(S)-3-amino-4-(difluoromethylenyl)cyclopent-1-ene-1-carboxylic acid] | does not inhibit | does not inhibit | does not inhibit | inhibitor | superior | does not inhibit |  |  |
|  | C=CC(N)CCC(=O)O (stereo not shown) [Vigabatrin, 4-Aminohex-5-enoic acid] |  |  |  | inhibitor |  |  | inhibits | 25-40 % of patients |
